Test: xn = mol fraction of the nth substance listed

CCCC[P+](CCCC)(CCCC)CCCC.F[B-](F)(F)F + C1CCOC1
298.15 K, 100 kPa
Conditions	viscosity [mPa·s]
x1 = 0.0008214	0.468
x1 = 0.001232	0.473
x1 = 0.001649	0.478
x1 = 0.002058	0.483
x1 = 0.002474	0.489
x1 = 0.002883	0.495

CCCC[P+](CCCC)(CCCC)CCCC.F[B-](F)(F)F + C1CCOC1 + C1COCO1
298.15 K, 100 kPa
Conditions	viscosity [mPa·s]
x1 = 0.0007279, x2 = 0.2549	0.563
x1 = 0.0007522, x2 = 0.5064	0.531
x1 = 0.0007834, x2 = 0.7544	0.499
x1 = 0.001095, x2 = 0.2548	0.569
x1 = 0.001131, x2 = 0.5062	0.537
x1 = 0.001182, x2 = 0.7541	0.505
x1 = 0.001455, x2 = 0.2547	0.575
x1 = 0.001511, x2 = 0.506	0.542
x1 = 0.001573, x2 = 0.7538	0.51
x1 = 0.001821, x2 = 0.2546	0.581
x1 = 0.001889, x2 = 0.5058	0.548
x1 = 0.001971, x2 = 0.7535	0.516
x1 = 0.00218, x2 = 0.2545	0.588
x1 = 0.002268, x2 = 0.5056	0.554
x1 = 0.002368, x2 = 0.7532	0.522
x1 = 0.002547, x2 = 0.2544	0.595
x1 = 0.002646, x2 = 0.5054	0.561
x1 = 0.002758, x2 = 0.7529	0.528

CCCC[P+](CCCC)(CCCC)CCCC.F[B-](F)(F)F + C1COCO1
298.15 K, 100 kPa
Conditions	viscosity [mPa·s]
x1 = 0.0007033	0.595
x1 = 0.001051	0.6
x1 = 0.001406	0.606
x1 = 0.001753	0.613
x1 = 0.002107	0.62
x1 = 0.002453	0.627

CCCC[n+]1ccccc1.N#C[N-]C#N + CC1COC(=O)O1
101 kPa
Conditions	electrical conductivity [S/m]	viscosity [mPa·s]
288.15 K, x1 = 0.1003	0.537	4.857
293.15 K, x1 = 0.4997	1.69	14.49
298.15 K, x1 = 0.3005	1.76	6.995
298.15 K, x1 = 0.7011	2.05	19.85
298.15 K, x1 = 0.7885	2.28	24.95
303.15 K, x1 = 0.3005	1.98	6.097
303.15 K, x1 = 0.6002	2.338	13.28
308.15 K, x1 = 0.1003	1.38	3.024
308.15 K, x1 = 0.3005	2.227	5.372
308.15 K, x1 = 0.7011	2.55	14.09
313.15 K, x1 = 0.1003	1.6	2.75
313.15 K, x1 = 0.3005	2.49	4.766
318.15 K, x1 = 0.1003	1.77	2.498
318.15 K, x1 = 0.7011	3.09	10.47
323.15 K, x1 = 0.197	2.44	3.04
323.15 K, x1 = 0.3005	3.038	3.842
323.15 K, x1 = 0.7011	3.432	9.16
323.15 K, x1 = 0.7885	3.732	10.85
328.15 K, x1 = 0.6002	3.724	6.707
328.15 K, x1 = 1	3.2	12.59
333.15 K, x1 = 0.197	2.94	2.58
333.15 K, x1 = 0.3005	3.66	3.172
333.15 K, x1 = 0.7011	4.16	7.185
333.15 K, x1 = 1	3.49	11.08
338.15 K, x1 = 0.197	3.17	2.394
343.15 K, x1 = 0.7011	4.98	5.796
343.15 K, x1 = 0.9008	5.122	7.641
348.15 K, x1 = 0.3005	4.732	2.474
348.15 K, x1 = 0.7011	5.416	5.253
353.15 K, x1 = 0.4003	5.33	2.965

Source: the CheMixHub ionic liquid set
